Laboratory results published in US20170340698A1, “CYCLIC PEPTIDE SPECIFICALLY BINDING TO APOPTOTIC CELLS AND USE THEREOF” (KYUNGPOOK NATIONAL UNIVERSITY INDUSTRY-ACADEMIC COOPERATION …, priority 2014, published 2017).
Residues, ends and D or L forms follow the SMILES beside them.

Columns and labels:
[1] = system: SNU-16 stomach tumor xenografts; assay: Anti-tumor treatment of mice: tumor volume, tumor weight, TUNEL staining; type: in vivo; conditions: cisplatin 5 mg/kg i.p. once per week, cetuximab 1.5 mg/kg i.p. twice per week, two weeks; measured over three weeks
Experimental: Eight-week old female athymic (nu/nu) Balb/c mice were purchased from Orient laboratories (Seongnam, Korea) and were housed under specific-pathogen-free (SPF) conditions with laboratory chow and water ad libitum. Stomach tumor xenografts were established by subcutaneously injecting 1×10^7 SNU-16 cells in 100 ml saline into the right flank. Tumors were allowed to reach 50-60 mm^3 of volume before randomization and initiation of treatment. […] In the present experiment, a total of two rounds of anticancer drug treatment were conducted for two weeks. Changes in tumor size were measured using an automatic caliper over three weeks. Tumor volumes were calculated using the formula: volume=(length×width×height)/2. Tumor weights were measured after isolation of tumor mass.
To examine anti-tumor growth effect by cisplatin or cetuximab alone and in combination, tumor volumes and weights after the drug treatment were measured.

[2] = Stability of peptides in the serum (C18 reverse phase FPLC, MS); type: in vitro ADME, mice; conditions: mouse serum
Excerpt: Peptide stability in the serum was examined by the same method referring to the following documents Yoo S A, Bae D G, Ryoo J W, Kim H R, Park G S, et al. (2005) Arginine-rich antivascular endothelial growth factor (anti-VEGF) hexapeptide inhibits collageninduced arthritis and VEGF-stimulated productions of TNF-alpha and IL-6 by human monocytes. J Immunol 174: 5846-5855. Blood from mice was collected, and then serum was collected by centrifugation at 4[…], followed by filtration through 0.22 um-pore filter. […] The flow rate was 0.3 ml/min, and analyzed by C18 reverse phase FPLC using a linear gradient of 20% from 0 to 100% using acetonitrile through a linear graduation of 20% (Vydac protein and peptide C18, 0.1% trifluoroacetate in water for equilibration, and 0.1% trifluoroacetate in acetonitrile for elution) (Life Technologies, Carlsbad, Calif.). […]
It was examined whether higher levels of imaging signals by the cyclic form of ApoPep-1 compared with those of the linear form of ApoPep-1 was due to the difference in serum stability of peptides. After incubation of the linear or cyclic form of ApoPep-1 with mouse serum up to 24 hours, the amount of the peptide remaining in the serum was analyzed. […]

| Compound | tumor volume compared with control group treated without drug [1] | amount of peptide remaining in the serum (peak area) ([2]; 37 degrees, up to 24 hours) | presence of peptide in serum by MS after incubation ([2]; incubation for 24 hours, MS of FPLC peak) |
| --- | --- | --- | --- |
| N.N.[Cl][Pt][Cl] [cisplatin] | reduced tumor volumes | – | – |
| N=C(N)NCCC[C@H](NC(=O)[C@@H]1CCCN1C(=O)[C@@H]1CCCN1C(=O)[C@H](CCCNC(=N)N)NC(=O)[C@H](CCC(N)=O)NC(=O)[C@@H](N)CS)C(=O)O [linear form of ApoPep-1, CQRPPR, reference compound] (H-CQRPPR-OH; N-terminus and C-terminus assumed) | – | not significantly changed | stably present |
